Results as given in article PMC7693880, “Preparation and Evaluation of Amino Acid Conjugates of Celecoxib as Prodrugs to Improve the Pharmacokinetic and Therapeutic Properties of Celecoxib” (Pharmaceutics, 2020).
Structures can show the parent of a compound that is named as a salt.

Key:
[1] = Apparent distribution coefficient (logD6.8) measurement, 1-octanol / pH 6.8 isotonic phosphate buffer; assay type: physicochemical; details: 37 °C; for logD: pH 6.8, 1-octanol / pH 6.8 isotonic phosphate buffer, read-out: Log D6.8 (apparent distribution coefficient)
Method: For this study, 1-octanol and pH 6.8 isotonic phosphate buffer (IPB) were pre-saturated with IPB and 1-octanol, respectively. 1-octanol (10 mL) was added to 500 μM of celecoxib, A1C, or N-GA1C in 10 mL IPB. The mixture was shaken for 1 h and left at 37 °C for 3 h. The concentration of celecoxib, A1C, G1C, or N-GA1C in the aqueous phase was analyzed by HPLC. The apparent partition coefficients were calculated using the equation (Co − Cw)/Cw, where Co and Cw represent the initial and equilibrium concentration of the drug in the aqueous phase, respectively.

[2] = Drug release study in cecal contents; assay type: in vitro ADME, Sprague Dawley rats; details: incubation with cecal contents, after 24 h
Method: Drug release study was performed with the celecoxib derivatives as described previously. Six-week-old male Sprague Dawley rats (250–260 g) were sacrificed using CO2, and a midline incision was made. The contents of the proximal small intestine, distal small intestine, and cecum, liver homogenate, or blood plasma were collected and suspended in IPB (20% (w/v)). A1C, G1C, or N-GA1C in the buffer (0.5 mL, 1 mM) was mixed with 0.5 mL of the suspension and then incubated at 37 °C under nitrogen gas. At the predetermined time points, the samples were extracted with 0.5 mL of ethyl acetate followed by centrifugation at 6000× g for 5 min. Methanol (1.0 mL) was added to the residue obtained from the evaporation of 0.1 mL of the organic layer. The solution was centrifuged at 20,000× g at 4 °C for 10 min. The concentrations of celecoxib, A1C, G1C, and N-GA1C in 20 μL of the supernatant were determined by HPLC.

[3] = Pharmacokinetic study after oral or intravenous administration; assay type: in vivo, Sprague Dawley rats; details: rat; for increase of the absolute BA of celecoxib: 20 mg/kg
Method: Blood samples were collected from the jugular vein using a heparinized syringe at predetermined times. Heparinized blood samples were immediately centrifuged at 6000× g for 5 min. Five-fold volume of ethyl acetate was mixed with plasma, centrifugation was performed at 6000× g for 5 min, and 1 mL of the organic solvent was evaporated. The residues were mixed with 0.1 mL of IPB and centrifuged at 20,000× g for 10 min at 4 °C. The concentration of celecoxib or N-GA1C in the samples was determined by HPLC. PK profiling was performed using PKsolver. Absolute BA and relative BA were calculated using the following equations: Absolute BA (F, %) = ((AUC0–∞)PO/dose PO)/((AUC0–∞)IV/dose IV); Relative BA (%) = ((AUC0–∞)A/dose A)/((AUC0–∞)B/dose B).

[4] = system: carrageenan-induced paw edema; test: Carrageenan-induced rat paw edema model; assay type: in vivo, Sprague Dawley rats; details: oral 10 mg/kg (equivalent mass of celecoxib)
Method: Six-week-old male Sprague Dawley rats (250–260 g) were orally administered celecoxib (10 mg/kg), A1C (equivalent mass of celecoxib), G1C (equivalent mass of celecoxib), N-GA1C (equivalent mass of celecoxib), or IPB as a control. After 1 h, 0.1 mL of carrageenan (1%) was injected into the hind paw of the rats. Carrageenan-induced increase in paw volume (paw edema) was measured at predetermined time points (0, 3, 6, 12, and 24 h). The paw volume of rats up to the knee joint was measured using a plethysmometer. The degree of inhibition of paw edema (%) at each time point was calculated using the following equation: (Control volume − treatment group volume)/Control paw volume × 100.

[5] = male, Sprague Dawley, plasma, IV, 10 mg/kg

SMILES | melting point [°C] | logD [1] | conversion to celecoxib [2] | increase of the absolute BA of celecoxib ([3]; oral, vs oral celecoxib) | volume reduction of paw edema ([4]; at 6 h) [%] | volume reduction of paw edema ([4]; at 24 h) [%] | also measured
Cc1ccc(-c2cc(C(F)(F)F)nn2-c2ccc(S(=O)(=O)NC(=O)C(N)CCC(=O)O)cc2)cc1 (stereo not shown) (as salt: salt) [G1C, glutam-1-yl celecoxib] | 110 to 115 |  |  |  |  |  | 
Cc1ccc(-c2cc(C(F)(F)F)nn2-c2ccc(S(N)(=O)=O)cc2)cc1 [Celecoxib] |  | 4.01 |  |  | 42.06 ± 4.69 | 20.99 ± 2.791 | Vd [3, 5]: 1.04 L/kg; clearance [3, 5]: 8.01 mL/min/kg; half-life [3, 5]: 1.5 h; AUC(0-inf) ([3]; male, Sprague Dawley, IV, 10 mg/kg, celecoxib in plasma): 6120 ± 520 ng·h/mL; AUC(0-t) ([3]; male, Sprague Dawley, IV, 10 mg/kg, celecoxib in plasma, read-out: AUC0–24): 5990 ± 440 ng·h/mL
Cc1ccc(-c2cc(C(F)(F)F)nn2-c2ccc(S(=O)(=O)NC(=O)C(N)CCC(=O)O)cc2)cc1 (stereo not shown) [G1C, glutam-1-yl celecoxib] |  | 0.8 | partially converted to celecoxib | three |  |  | Log D6.8 (apparent distribution coefficient) [1]: 0.81
Cc1ccc(-c2cc(C(F)(F)F)nn2-c2ccc(S(=O)(=O)NC(=O)C(CC(=O)O)NC(=O)CN)cc2)cc1 (stereo not shown) [N-GA1C, N-glycyl-aspart-1-yl celecoxib] |  | -0.13 |  |  | 32.42 ± 2.50 | 78.96 ± 1.56 | plasma concentration of N-GA1C ([3]; oral N-GA1C 10 mg/kg, for 24 h): not detected

More lines, main results first:

melting point [°C] | logD [1] | conversion to celecoxib [2] | increase of the absolute BA of celecoxib ([3]; oral, vs oral celecoxib) | SMILES | volume reduction of paw edema ([4]; at 6 h) [%] | volume reduction of paw edema ([4]; at 24 h) [%] | also measured
134 to 137 |  |  |  | Cc1ccc(-c2cc(C(F)(F)F)nn2-c2ccc(S(=O)(=O)NC(=O)[C@@H](N)CC(=O)O)cc2)cc1 (as salt: salt) [A1C, aspart-1-yl celecoxib] |  |  | 
 | 0.6 | partially converted to celecoxib | approximately two | Cc1ccc(-c2cc(C(F)(F)F)nn2-c2ccc(S(=O)(=O)NC(=O)[C@@H](N)CC(=O)O)cc2)cc1 [A1C, aspart-1-yl celecoxib] |  |  | increase in absolute BA ([3]; oral, 10 mg/kg, vs oral celecoxib): no increase
